Earlier results in patent US20040023937A1, “Anti-cancer formulation” (Greystone Medical Group, Inc., priority 2002, published 2004).

Columns and labels:
[1] = system: human fibrosarcoma cells; conditions: reported
[2] = system: MMP-2; conditions: second of two gelatin degrading MMP's; reported
[3] = system: MMP-9; conditions: gelatin degrading matrix metalloproteinase; mechanism reported to be thought to involve it

C[C@H]1[C@H](C)CC[C@]2(C(=O)O)CC[C@]3(C)C(=CC[C@@H]4[C@@]5(C)CC[C@H](O)C(C)(C)[C@@H]5CC[C@]43C)[C@H]12 [Ursolic acid]
anti-invasive activity [1]: anti-invasive activity
effect on MMP-2 [2]: no effect
down-regulation of MMP-9 [3]: down-regulation
